Values after ≈ are worked out from the molar mass of the structure shown. Active and inactive are the calls of the source. The rule behind the calls is not given here.
Key:
[1] = target: T1, 1-deoxy-D-xylulose 5-phosphate reductoisomerase (Mycobacterium tuberculosis, UniProt P9WNS1); assay: Inhibition of recombinant Mycobacterium tuberculosis Dxr expressed in Escherichia coli BL21 CodonPlus (DE3)-RIL cells using DOXP as substrate assessed as NADPH oxidation by spectrophotometric analysis
T1 sequence (P9WNS1 whole entry): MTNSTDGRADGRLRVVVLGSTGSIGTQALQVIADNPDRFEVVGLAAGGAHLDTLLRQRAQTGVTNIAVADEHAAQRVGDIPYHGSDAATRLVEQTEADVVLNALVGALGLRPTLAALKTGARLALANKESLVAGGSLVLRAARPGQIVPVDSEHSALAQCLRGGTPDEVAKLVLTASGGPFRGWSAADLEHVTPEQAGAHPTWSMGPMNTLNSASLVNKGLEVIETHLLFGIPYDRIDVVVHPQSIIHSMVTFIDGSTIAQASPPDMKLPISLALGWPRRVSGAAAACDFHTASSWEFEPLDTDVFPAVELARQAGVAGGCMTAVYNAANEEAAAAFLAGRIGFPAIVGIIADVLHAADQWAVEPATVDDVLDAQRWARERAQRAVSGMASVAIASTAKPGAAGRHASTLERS

[2] = target: T2, 1-deoxy-D-xylulose 5-phosphate reductoisomerase (Escherichia coli, UniProt W8T2T2); assay: Inhibition of recombinant Escherichia coli Dxr expressed in Escherichia coli BL21 CodonPlus (DE3)-RIL cells using DOXP as substrate assessed as NADPH oxidation preincubated for 5 mins with NADPH followed by substrate addition by spectrophotometric analysis
T2 sequence (W8T2T2 whole entry): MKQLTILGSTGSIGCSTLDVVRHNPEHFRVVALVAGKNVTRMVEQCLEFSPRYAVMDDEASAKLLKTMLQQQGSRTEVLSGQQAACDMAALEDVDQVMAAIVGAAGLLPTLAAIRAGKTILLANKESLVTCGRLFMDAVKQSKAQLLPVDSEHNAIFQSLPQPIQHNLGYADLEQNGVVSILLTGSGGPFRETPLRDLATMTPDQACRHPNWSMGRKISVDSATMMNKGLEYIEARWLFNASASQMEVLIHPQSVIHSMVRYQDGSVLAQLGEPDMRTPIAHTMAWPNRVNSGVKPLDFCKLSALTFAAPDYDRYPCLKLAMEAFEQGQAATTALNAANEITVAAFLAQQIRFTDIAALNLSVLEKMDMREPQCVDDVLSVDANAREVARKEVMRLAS

Plasmodium falciparum [3] = assay: Schizontocidal activity against Plasmodium falciparum K1 infected in human RBC after 72 hrs by Malstat reagent-based spectrophotometric analysis; assay type: functional; details: K1, 72 h
[4] = target: T3, 1-deoxy-D-xylulose 5-phosphate reductoisomerase (Mycobacterium tuberculosis) (UniProt P9WNS1); assay: Inhibition of recombinant Mycobacterium tuberculosis Dxr expressed in Escherichia coli BL21 CodonPlus (DE3)-RIL cells using DOXP as substrate assessed as NADPH oxidation at 100 uM by spectrophotometric analysis
T3 sequence (whole entry): T1 sequence (P9WNS1 whole entry)

[5] = target: T4, 1-deoxy-D-xylulose 5-phosphate reductoisomerase (Escherichia coli) (UniProt W8T2T2); assay: Inhibition of recombinant Escherichia coli Dxr expressed in Escherichia coli BL21 CodonPlus (DE3)-RIL cells using DOXP as substrate assessed as NADPH oxidation at 100 uM preincubated for 5 mins with NADPH followed by substrate addition by spectrophotometric analysis
T4 sequence (whole entry): T2 sequence (W8T2T2 whole entry)

Escherichia coli [6] = assay: Antibacterial activity against Escherichia coli ATCC 8739 by two-fold broth microdilution method; assay type: functional
Escherichia coli [7] = assay: Antibacterial activity against Escherichia coli ATCC 25922 by two-fold broth microdilution method; assay type: functional
Escherichia coli [8] = assay: Antibacterial activity against Escherichia coli K-12 by two-fold broth microdilution method; assay type: functional
[9] = system: Mycolicibacterium smegmatis; assay: Antibacterial activity against Mycobacterium smegmatis ATCC 607 after 24 to 48 hrs by two-fold broth microdilution method; assay type: functional
[10] = system: Mycolicibacterium smegmatis; assay: Antibacterial activity against Mycobacterium smegmatis ATCC 700084 after 24 to 48 hrs by two-fold broth microdilution method; assay type: functional
[11] = Inhibition of recombinant Plasmodium falciparum Dxr expressed in Escherichia coli C43(DE3) using DOXP as substrate assessed as NADPH oxidation by spectrophotometric analysis
Plasmodium falciparum [12] = assay: Inhibition of recombinant Plasmodium falciparum Dxr expressed in Escherichia coli C43(DE3) using DOXP as substrate assessed as NADPH oxidation at 100 uM by spectrophotometric analysis

Row | Compound | IC50 [1] [nM] | IC50 [2] [nM] | MIC50 (Plasmodium falciparum [3]) [µM] | inhibition [4] | inhibition [5] | MIC50 (Escherichia coli [6]) [µM] | MIC50 (Escherichia coli [7]) [µM] | MIC50 (Escherichia coli [8]) [µM] | MIC50 [9] [µM] | MIC50 [10] [µM] | IC50 [11] [nM] | inhibition (Plasmodium falciparum [12])
1 | CC(CC(=O)N(C)O)CP(=O)(O)O (centres undefined) | 205 | 7130 | 0.74 (≈ 0.156 µg/mL) | – | – | – | – | – | – | – | – | –
2 | CN(O)C(=O)CC(CP(=O)(O)O)c1ccc(Cl)cc1 (centres undefined) | – | – | > 64 | inactive | inactive | > 250 | > 250 | > 250 | > 250 | > 250 | – | –
3 | CC(=O)N(O)CCCP(=O)(O)O [FR-900098] | – | – | – | – | – | 7.8 (≈ 1.54 µg/mL) | 62.5 (≈ 12.3 µg/mL) | 15.6 (≈ 3.08 µg/mL) | > 250 | > 250 | – | –
4 | CN(O)C(=O)CC(CCc1ccccc1)CP(=O)(O)O (centres undefined) | 31400 | – | 35.4 (≈ 10.7 µg/mL) | – | – | > 250 | > 250 | > 250 | > 250 | > 250 | 1360 | –
5 | CN(O)C(=O)CC(CP(=O)(O)O)c1ccc(Cl)c(Cl)c1 (centres undefined) | – | – | > 64 | inactive | inactive | > 250 | > 250 | > 250 | > 250 | > 250 | – | –
6 | CN(O)C(=O)CC(CP(=O)(O)O)c1ccccc1 (centres undefined) | – | – | > 64 | inactive | inactive | > 250 | > 250 | > 250 | > 250 | > 250 | 3300 | –
7 | CN(O)C(=O)CC(Cc1ccccc1)CP(=O)(O)O (centres undefined) | – | – | ≥ 56.8 | – | Active | – | – | – | – | – | – | Active
8 | CN(O)C(=O)CCCP(=O)(O)O | 159 | 1150 | 0.26 (≈ 0.0513 µg/mL) | – | – | 31.2 (≈ 6.16 µg/mL) | 15.6 (≈ 3.08 µg/mL) | 31.2 (≈ 6.16 µg/mL) | > 250 | > 250 | – | –
9 | COc1ccc(C(CC(=O)N(C)O)CP(=O)(O)O)cc1 (centres undefined) | – | – | > 64 | inactive | inactive | > 250 | > 250 | > 250 | > 250 | > 250 | 18800 | –
10 | Cc1ccc(C(CC(=O)N(C)O)CP(=O)(O)O)cc1 (centres undefined) | – | – | > 64 | inactive | inactive | > 250 | > 250 | > 250 | > 250 | > 250 | 9300 | –
11 | CN(O)C(=O)CC(CCCCc1ccccc1)CP(=O)(O)O (centres undefined) | 6670 | 273000 | < 0.25 | – | – | > 250 | > 250 | > 250 | > 250 | > 250 | 69 | –
12 | O=CN(O)CCCP(=O)(O)O [FOSMIDOMYCIN] | – | – | – | – | – | 0.98 (≈ 0.179 µg/mL) | 250 (≈ 45.8 µg/mL) | 7.8 (≈ 1.43 µg/mL) | > 250 | > 250 | 36 | –
13 | CN(O)C(=O)CC(CCCc1ccccc1)CP(=O)(O)O (centres undefined) | 843 | 10300 | 0.43 (≈ 0.136 µg/mL) | – | – | > 250 | > 250 | > 250 | > 250 | > 250 | 117 | –
